{"source": "the kinase profiling compilation of Christmann-Franck et al. (2016)", "assay_in_all_cases": "KINOMEscan competition binding", "details_in_all_cases": "compound 10.0 µM", "key": {"ALK (human)": {"target": "ALK (human) (UniProt Q9UM73)", "sequence (Q9UM73 whole entry, looked up)": "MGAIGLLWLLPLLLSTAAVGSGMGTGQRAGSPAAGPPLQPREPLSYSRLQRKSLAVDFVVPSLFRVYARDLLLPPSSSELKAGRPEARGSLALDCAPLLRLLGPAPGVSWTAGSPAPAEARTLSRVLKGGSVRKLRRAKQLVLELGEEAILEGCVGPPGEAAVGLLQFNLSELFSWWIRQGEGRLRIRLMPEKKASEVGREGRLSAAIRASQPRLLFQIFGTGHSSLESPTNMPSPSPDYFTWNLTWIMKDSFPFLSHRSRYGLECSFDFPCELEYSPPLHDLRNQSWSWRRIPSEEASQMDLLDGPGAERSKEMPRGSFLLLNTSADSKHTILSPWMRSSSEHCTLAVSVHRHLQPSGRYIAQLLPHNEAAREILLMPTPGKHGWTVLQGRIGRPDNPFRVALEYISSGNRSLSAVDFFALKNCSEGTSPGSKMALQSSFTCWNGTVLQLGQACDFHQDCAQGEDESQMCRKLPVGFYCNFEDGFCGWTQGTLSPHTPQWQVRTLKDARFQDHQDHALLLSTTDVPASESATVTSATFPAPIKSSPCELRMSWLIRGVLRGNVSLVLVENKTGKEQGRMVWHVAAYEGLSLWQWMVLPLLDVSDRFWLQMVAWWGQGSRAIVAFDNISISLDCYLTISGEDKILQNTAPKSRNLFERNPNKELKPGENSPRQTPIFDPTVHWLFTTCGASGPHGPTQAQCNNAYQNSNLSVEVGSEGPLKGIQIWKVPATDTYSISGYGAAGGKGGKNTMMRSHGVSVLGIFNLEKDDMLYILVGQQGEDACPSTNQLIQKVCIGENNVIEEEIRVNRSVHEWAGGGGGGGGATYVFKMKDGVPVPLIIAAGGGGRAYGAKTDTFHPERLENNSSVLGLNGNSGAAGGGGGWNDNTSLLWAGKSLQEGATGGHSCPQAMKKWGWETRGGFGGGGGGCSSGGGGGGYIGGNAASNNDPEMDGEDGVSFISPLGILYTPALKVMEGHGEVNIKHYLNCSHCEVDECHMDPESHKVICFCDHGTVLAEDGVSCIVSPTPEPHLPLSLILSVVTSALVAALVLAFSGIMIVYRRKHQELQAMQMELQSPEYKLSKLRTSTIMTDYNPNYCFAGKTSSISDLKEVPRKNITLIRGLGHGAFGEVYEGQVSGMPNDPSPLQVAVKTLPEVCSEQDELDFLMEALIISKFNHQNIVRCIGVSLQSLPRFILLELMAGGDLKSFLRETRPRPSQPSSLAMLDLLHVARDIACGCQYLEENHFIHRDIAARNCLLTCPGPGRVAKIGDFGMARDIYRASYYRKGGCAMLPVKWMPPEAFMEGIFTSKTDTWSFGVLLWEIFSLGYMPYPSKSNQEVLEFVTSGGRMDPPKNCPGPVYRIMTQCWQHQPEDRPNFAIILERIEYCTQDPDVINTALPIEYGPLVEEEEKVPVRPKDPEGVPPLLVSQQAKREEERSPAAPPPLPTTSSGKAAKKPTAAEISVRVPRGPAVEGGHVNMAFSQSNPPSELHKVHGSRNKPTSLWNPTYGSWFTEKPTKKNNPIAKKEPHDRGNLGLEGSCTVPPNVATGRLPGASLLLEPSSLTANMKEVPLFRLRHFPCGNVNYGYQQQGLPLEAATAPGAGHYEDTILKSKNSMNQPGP"}, "ANKK1 (human)": {"target": "ANKK1 (human) (UniProt Q8NFD2)"}, "AURKB (human)": {"target": "AURKB (human) (UniProt Q96GD4)"}, "CAMK1D (human)": {"target": "CAMK1D (human) (UniProt Q8IU85)", "sequence (Q8IU85 whole entry, looked up)": "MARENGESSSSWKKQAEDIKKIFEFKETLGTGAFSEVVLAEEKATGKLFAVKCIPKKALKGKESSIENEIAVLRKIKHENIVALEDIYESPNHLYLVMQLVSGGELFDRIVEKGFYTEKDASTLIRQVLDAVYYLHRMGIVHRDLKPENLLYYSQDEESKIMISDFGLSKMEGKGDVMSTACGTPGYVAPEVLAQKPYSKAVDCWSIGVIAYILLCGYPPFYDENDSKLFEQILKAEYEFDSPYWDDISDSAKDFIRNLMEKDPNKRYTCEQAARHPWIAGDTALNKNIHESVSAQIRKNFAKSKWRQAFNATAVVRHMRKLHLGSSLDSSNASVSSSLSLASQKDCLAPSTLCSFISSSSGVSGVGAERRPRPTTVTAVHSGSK"}, "CLK4 (human)": {"target": "CLK4 (human) (UniProt Q9HAZ1)"}, "CSNK2A2 (human)": {"target": "CSNK2A2 (human) (UniProt P19784)"}, "DCLK2 (human)": {"target": "DCLK2 (human) (UniProt Q8N568)"}, "DYRK1B (human)": {"target": "DYRK1B (human) (UniProt Q9Y463)"}, "EPHA7 (human)": {"target": "EPHA7 (human) (UniProt Q15375)"}, "EPHB3 (human)": {"target": "EPHB3 (human) (UniProt P54753)"}, "FLT3 (human)": {"target": "FLT3 (human) (UniProt P36888)"}, "[1]": {"system": "FLT3 (human), P36888 [ITD]"}, "[2]": {"system": "FLT3 (human), P36888 [N841I]"}, "HIPK1 (human)": {"target": "HIPK1 (human) (UniProt Q86Z02)"}, "KDR (human)": {"target": "KDR (human) (UniProt P35968)"}, "LATS1 (human)": {"target": "LATS1 (human) (UniProt O95835)"}, "MAP4K5 (human)": {"target": "MAP4K5 (human) (UniProt Q9Y4K4)"}, "MAPK11 (human)": {"target": "MAPK11 (human) (UniProt Q15759)", "sequence (Q15759 whole entry, looked up)": "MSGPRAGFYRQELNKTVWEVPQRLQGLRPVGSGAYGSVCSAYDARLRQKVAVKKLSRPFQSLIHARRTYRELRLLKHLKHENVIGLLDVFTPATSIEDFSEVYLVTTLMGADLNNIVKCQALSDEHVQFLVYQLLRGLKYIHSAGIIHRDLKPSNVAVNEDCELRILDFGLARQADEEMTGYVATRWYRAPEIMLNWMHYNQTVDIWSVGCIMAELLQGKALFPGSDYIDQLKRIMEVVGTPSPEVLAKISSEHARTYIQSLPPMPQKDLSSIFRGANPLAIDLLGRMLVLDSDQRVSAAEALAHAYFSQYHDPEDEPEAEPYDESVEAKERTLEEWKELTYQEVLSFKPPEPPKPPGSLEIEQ"}, "MAPK13 (human)": {"target": "MAPK13 (human) (UniProt O15264)"}, "MARK2 (human)": {"target": "MARK2 (human) (UniProt Q7KZI7)", "sequence (Q7KZI7 whole entry, looked up)": "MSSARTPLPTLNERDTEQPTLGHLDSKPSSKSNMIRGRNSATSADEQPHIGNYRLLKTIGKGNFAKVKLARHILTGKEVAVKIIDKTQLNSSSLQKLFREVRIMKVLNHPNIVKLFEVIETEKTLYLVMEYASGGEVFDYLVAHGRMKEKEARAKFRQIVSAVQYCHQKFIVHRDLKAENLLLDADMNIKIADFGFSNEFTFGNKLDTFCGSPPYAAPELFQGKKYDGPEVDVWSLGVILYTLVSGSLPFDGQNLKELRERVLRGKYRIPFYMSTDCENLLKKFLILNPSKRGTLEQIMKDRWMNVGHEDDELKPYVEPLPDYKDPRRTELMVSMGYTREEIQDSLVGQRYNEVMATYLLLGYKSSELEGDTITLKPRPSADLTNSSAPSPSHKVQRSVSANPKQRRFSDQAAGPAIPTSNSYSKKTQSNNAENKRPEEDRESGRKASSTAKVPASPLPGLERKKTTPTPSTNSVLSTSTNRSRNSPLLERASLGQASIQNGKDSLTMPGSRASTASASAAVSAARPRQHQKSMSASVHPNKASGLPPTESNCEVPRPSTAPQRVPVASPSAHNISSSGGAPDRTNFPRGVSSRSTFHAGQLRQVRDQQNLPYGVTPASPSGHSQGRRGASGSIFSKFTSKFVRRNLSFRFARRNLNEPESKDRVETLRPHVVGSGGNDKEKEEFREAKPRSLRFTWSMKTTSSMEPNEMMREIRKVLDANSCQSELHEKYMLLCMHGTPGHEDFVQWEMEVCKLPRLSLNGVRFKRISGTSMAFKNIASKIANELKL"}, "MKNK1 (human)": {"target": "MKNK1 (human) (UniProt Q9BUB5)"}, "MYLK2 (human)": {"target": "MYLK2 (human) (UniProt Q9H1R3)"}, "NEK1 (human)": {"target": "NEK1 (human) (UniProt Q96PY6)"}, "PAK2 (human)": {"target": "PAK2 (human) (UniProt Q13177)"}, "PIP4K2B (human)": {"target": "PIP4K2B (human) (UniProt P78356)"}, "PLK1 (human)": {"target": "PLK1 (human) (UniProt P53350)"}, "PRKAA1 (human)": {"target": "PRKAA1 (human) (UniProt Q13131)", "sequence (Q13131 whole entry, looked up)": "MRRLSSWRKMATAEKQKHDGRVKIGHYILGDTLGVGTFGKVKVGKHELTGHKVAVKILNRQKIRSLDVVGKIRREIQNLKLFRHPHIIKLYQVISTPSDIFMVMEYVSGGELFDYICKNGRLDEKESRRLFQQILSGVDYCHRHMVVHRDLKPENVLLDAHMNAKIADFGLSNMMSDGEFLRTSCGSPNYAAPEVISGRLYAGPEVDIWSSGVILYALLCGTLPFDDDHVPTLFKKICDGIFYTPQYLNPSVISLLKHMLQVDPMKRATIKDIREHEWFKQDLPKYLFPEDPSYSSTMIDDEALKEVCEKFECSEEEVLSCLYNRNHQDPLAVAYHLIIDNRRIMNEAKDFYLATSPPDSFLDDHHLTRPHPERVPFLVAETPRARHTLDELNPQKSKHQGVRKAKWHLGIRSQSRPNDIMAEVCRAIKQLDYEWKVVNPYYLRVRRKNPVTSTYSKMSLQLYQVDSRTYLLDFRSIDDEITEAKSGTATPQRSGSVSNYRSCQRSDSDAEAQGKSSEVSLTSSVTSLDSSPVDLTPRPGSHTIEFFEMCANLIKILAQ"}, "PRKCE (human)": {"target": "PRKCE (human) (UniProt Q02156)"}, "PRKG1 (human)": {"target": "PRKG1 (human) (UniProt Q13976)"}, "PRKX (human)": {"target": "PRKX (human) (UniProt P51817)", "sequence (P51817 whole entry, looked up)": "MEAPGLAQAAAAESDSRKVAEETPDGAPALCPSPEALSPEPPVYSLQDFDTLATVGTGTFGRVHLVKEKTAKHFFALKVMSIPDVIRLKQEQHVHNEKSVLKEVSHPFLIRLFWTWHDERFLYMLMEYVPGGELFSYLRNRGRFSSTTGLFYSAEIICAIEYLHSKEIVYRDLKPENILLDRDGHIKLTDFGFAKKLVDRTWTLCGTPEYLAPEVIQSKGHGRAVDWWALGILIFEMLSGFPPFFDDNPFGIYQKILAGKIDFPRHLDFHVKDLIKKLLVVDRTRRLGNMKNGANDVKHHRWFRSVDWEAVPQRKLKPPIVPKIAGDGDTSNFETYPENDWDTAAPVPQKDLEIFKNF"}, "PTK6 (human)": {"target": "PTK6 (human) (UniProt Q13882)"}, "RIOK2 (human)": {"target": "RIOK2 (human) (UniProt Q9BVS4)"}, "ROS1 (human)": {"target": "ROS1 (human) (UniProt P08922)"}, "RPS6KA5 KD1 (human)": {"target": "RPS6KA5 KD1 (human) (UniProt O75582)"}, "RPS6KA5 KD2 (human)": {"target": "RPS6KA5 KD2 (human) (UniProt O75582)"}, "STK17B (human)": {"target": "STK17B (human) (UniProt O94768)"}, "STK38L (human)": {"target": "STK38L (human) (UniProt Q9Y2H1)"}, "TAOK1 (human)": {"target": "TAOK1 (human) (UniProt Q7L7X3)", "sequence (Q7L7X3 whole entry, looked up)": "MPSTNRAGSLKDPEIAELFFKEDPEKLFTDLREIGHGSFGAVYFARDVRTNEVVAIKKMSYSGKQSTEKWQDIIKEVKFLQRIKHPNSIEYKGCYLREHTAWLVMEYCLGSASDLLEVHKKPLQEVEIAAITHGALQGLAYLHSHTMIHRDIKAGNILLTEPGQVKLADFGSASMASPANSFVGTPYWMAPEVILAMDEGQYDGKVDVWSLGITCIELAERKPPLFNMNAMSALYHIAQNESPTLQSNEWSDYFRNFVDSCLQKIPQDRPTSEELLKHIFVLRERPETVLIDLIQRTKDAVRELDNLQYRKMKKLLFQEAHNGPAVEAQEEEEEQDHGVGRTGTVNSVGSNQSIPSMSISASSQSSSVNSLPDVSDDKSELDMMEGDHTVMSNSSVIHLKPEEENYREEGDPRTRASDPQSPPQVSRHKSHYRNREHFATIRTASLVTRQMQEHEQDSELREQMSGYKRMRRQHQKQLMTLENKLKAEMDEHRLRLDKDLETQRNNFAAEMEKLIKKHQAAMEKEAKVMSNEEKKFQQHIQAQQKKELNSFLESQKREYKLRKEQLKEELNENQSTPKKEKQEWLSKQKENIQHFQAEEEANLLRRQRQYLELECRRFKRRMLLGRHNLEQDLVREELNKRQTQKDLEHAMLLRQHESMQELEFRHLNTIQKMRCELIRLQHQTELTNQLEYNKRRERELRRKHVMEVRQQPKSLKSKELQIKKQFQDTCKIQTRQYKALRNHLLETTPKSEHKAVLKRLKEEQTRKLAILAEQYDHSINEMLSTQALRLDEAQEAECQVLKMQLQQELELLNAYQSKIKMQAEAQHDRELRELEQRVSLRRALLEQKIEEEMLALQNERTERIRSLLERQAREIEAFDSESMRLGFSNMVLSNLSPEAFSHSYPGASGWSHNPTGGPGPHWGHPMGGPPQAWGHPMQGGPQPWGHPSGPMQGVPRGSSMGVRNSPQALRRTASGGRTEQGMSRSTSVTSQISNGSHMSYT"}, "TLK2 (human)": {"target": "TLK2 (human) (UniProt Q86UE8)"}, "TYRO3 (human)": {"target": "TYRO3 (human) (UniProt Q06418)"}}, "data": [{"smiles": "COc1cc(C(=O)NC2CCN(C)CC2)ccc1Nc1ncc2c(n1)N(C1CCCC1)CCC(=O)N2C(C)C", "values": [{"measurement": "kinase still bound, per cent of control", "setting": "ALK (human)", "value": 100, "unit": "%"}, {"measurement": "kinase still bound, per cent of control", "setting": "ANKK1 (human)", "value": 100, "unit": "%"}, {"measurement": "kinase still bound, per cent of control", "setting": "AURKB (human)", "value": 100, "unit": "%"}, {"measurement": "kinase still bound, per cent of control", "setting": "CAMK1D (human)", "value": 100, "unit": "%"}, {"measurement": "kinase still bound, per cent of control", "setting": "CLK4 (human)", "value": 100, "unit": "%"}, {"measurement": "kinase still bound, per cent of control", "setting": "CSNK2A2 (human)", "value": 100, "unit": "%"}, {"measurement": "kinase still bound, per cent of control", "setting": "DCLK2 (human)", "value": 100, "unit": "%"}, {"measurement": "kinase still bound, per cent of control", "setting": "DYRK1B (human)", "value": 100, "unit": "%"}, {"measurement": "kinase still bound, per cent of control", "setting": "EPHA7 (human)", "value": 100, "unit": "%"}, {"measurement": "kinase still bound, per cent of control", "setting": "EPHB3 (human)", "value": 100, "unit": "%"}, {"measurement": "kinase still bound, per cent of control", "setting": "FLT3 (human)", "value": 100, "unit": "%"}, {"measurement": "kinase still bound, per cent of control", "setting": "[1]", "value": 100, "unit": "%"}, {"measurement": "kinase still bound, per cent of control", "setting": "[2]", "value": 100, "unit": "%"}, {"measurement": "kinase still bound, per cent of control", "setting": "HIPK1 (human)", "value": 100, "unit": "%"}, {"measurement": "kinase still bound, per cent of control", "setting": "KDR (human)", "value": 100, "unit": "%"}, {"measurement": "kinase still bound, per cent of control", "setting": "LATS1 (human)", "value": 100, "unit": "%"}, {"measurement": "kinase still bound, per cent of control", "setting": "MAP4K5 (human)", "value": 100, "unit": "%"}, {"measurement": "kinase still bound, per cent of control", "setting": "MAPK11 (human)", "value": 100, "unit": "%"}, {"measurement": "kinase still bound, per cent of control", "setting": "MAPK13 (human)", "value": 100, "unit": "%"}, {"measurement": "kinase still bound, per cent of control", "setting": "MARK2 (human)", "value": 100, "unit": "%"}, {"measurement": "kinase still bound, per cent of control", "setting": "MKNK1 (human)", "value": 100, "unit": "%"}, {"measurement": "kinase still bound, per cent of control", "setting": "MYLK2 (human)", "value": 100, "unit": "%"}, {"measurement": "kinase still bound, per cent of control", "setting": "NEK1 (human)", "value": 100, "unit": "%"}, {"measurement": "kinase still bound, per cent of control", "setting": "PAK2 (human)", "value": 100, "unit": "%"}, {"measurement": "kinase still bound, per cent of control", "setting": "PIP4K2B (human)", "value": 100, "unit": "%"}, {"measurement": "kinase still bound, per cent of control", "setting": "PLK1 (human)", "value": 17, "unit": "%"}, {"measurement": "kinase still bound, per cent of control", "setting": "PRKAA1 (human)", "value": 100, "unit": "%"}, {"measurement": "kinase still bound, per cent of control", "setting": "PRKCE (human)", "value": 100, "unit": "%"}, {"measurement": "kinase still bound, per cent of control", "setting": "PRKG1 (human)", "value": 100, "unit": "%"}, {"measurement": "kinase still bound, per cent of control", "setting": "PRKX (human)", "value": 100, "unit": "%"}, {"measurement": "kinase still bound, per cent of control", "setting": "PTK6 (human)", "value": 100, "unit": "%"}, {"measurement": "kinase still bound, per cent of control", "setting": "RIOK2 (human)", "value": 100, "unit": "%"}, {"measurement": "kinase still bound, per cent of control", "setting": "ROS1 (human)", "value": 100, "unit": "%"}, {"measurement": "kinase still bound, per cent of control", "setting": "RPS6KA5 KD1 (human)", "value": 100, "unit": "%"}, {"measurement": "kinase still bound, per cent of control", "setting": "RPS6KA5 KD2 (human)", "value": 100, "unit": "%"}, {"measurement": "kinase still bound, per cent of control", "setting": "STK17B (human)", "value": 100, "unit": "%"}, {"measurement": "kinase still bound, per cent of control", "setting": "STK38L (human)", "value": 100, "unit": "%"}, {"measurement": "kinase still bound, per cent of control", "setting": "TAOK1 (human)", "value": 100, "unit": "%"}, {"measurement": "kinase still bound, per cent of control", "setting": "TLK2 (human)", "value": 100, "unit": "%"}, {"measurement": "kinase still bound, per cent of control", "setting": "TYRO3 (human)", "value": 100, "unit": "%"}]}]}
